Test results as given in US8481540B2, “Inhibitors of bruton's tyrosine kinase” (Hoffmann-La Roche Inc., priority 2010, dated 2013).

tested on: B cells in human blood; experiment: Inhibition of B cell activation in whole blood measured by CD69 expression; format: cell-based; conditions: CD69-positive, CD20-positive cells after anti-IgM stimulation, human whole blood, 20 hours, read-out: Human Whole Blood
Protocol: Inhibition of B Cell Activation in Whole Blood Measured by CD69 Expression
A procedure to test the ability of Btk inhibitors to suppress B cell receptor-mediated activation of B cells in human blood is as follows:
Human whole blood (HWB) is obtained from healthy volunteers, with the following restrictions: 24 hr drug-free, non-smokers. Blood is collected by venipuncture into Vacutainer tubes anticoagulated with sodium heparin. Test compounds are diluted to […] the desired starting drug concentration in PBS (20×), followed by three-fold serial dilutions in 10% DMSO in PBS to produce a nine point dose-response curve. 5.5 μl of each compound dilution is added in duplicate to a 2 ml96-well V bottom plate (Analytical Sales and Services, #59623-23); 5.5 μl of 10% DMSO in PBS is added to control and no-stimulus wells. HWB (100 μl) is added to each well, and after mixing the plates are incubated at 37 C, 5% CO2, 100% humidity for 30 minutes. Goat F(ab′)2 anti-human IgM (Southern Biotech, #2022-14) (10 μl of a […] solution, 50 μg/ml final concentration) is added to each well (except the no-stimulus wells) with mixing and the plates are incubated for an additional 20 hours.
At the end of the 20 hour incubation, samples are incubated with florescent-probe-labeled anti-bodies (15 μl PE Mouse anti-Human CD20, BD Pharmingen, #555623, and/or 20 ul APC Mouse anti-Human CD69, BD Pharmingen #555533) for 30 minutes, at 37 C, 5% CO2, 100% humidity. Included are induced control, unstained and single stains for compensation adjustments and initial voltage settings. Samples are then lysed with 1 ml of 1× Pharmingen Lyse Buffer (BD Pharmingen #555899), and plates are centrifuged at 1800 rpm for 5 minutes. Supernatants are removed via suction and the remaining pellets are lysed again with another 1 ml of 1× Pharmingen Lyse Buffer, and plates are spun down as before. Supernatants are aspirated and remaining pellets are washed in FACs buffer (PBS+1% FBS). After a final spin, the supernantants are removed and pellets are resuspended in 180 μl of FACs buffer. Samples are transferred to a 96 well plate suitable to be run on the HTS 96 well system on the BD LSR II flow cytometer.
Using appropriate excitation and emission wavelengths for the fluorophores used, data are acquired and percent positive cell values are obtained using Cell Quest Software. Results are initially analyzed by FACS analysis software (Flow Jo). […] The IC50 values are calculated using XLfit software version 3, equation 201.
Representative compound data for this assay are listed below in Table II.

IC50	SMILES
6 nM	CN1CCC(c2ccc(Nc3cc(-c4cccc(-n5ncc6cc(C(C)(C)C)cc(F)c6c5=O)c4CO)nn(C)c3=O)nc2)C1 (centres unmarked) [I-28, 6-tert-Butyl-8-fluoro-2-(2-hydroxymethyl-3-{1-methyl-5-[5-(1-methyl-pyrrolidin-3-yl)-pyridin-2-ylamino]-6-oxo-1,6-dihydro-pyridazin-3-yl}-phenyl)-2H-phthalazin-1-one]
15 nM	CC(C)N1CCC(c2ccc(Nc3cc(-c4cccc(-n5ncc6cc(C(C)(C)C)cc(F)c6c5=O)c4CO)nn(C)c3=O)nc2)CC1 [I-29, 6-tert-Butyl-8-fluoro-2-{2-hydroxymethyl-3-[5-(1′-isopropyl-1′,2′,3′,4′,5′,6′-hexahydro-[3,4′]bipyridinyl-6-ylamino)-1-methyl-6-oxo-1,6-dihydro-pyridazin-3-yl]-phenyl}-2H-phthalazin-1-one]
4 nM	CCN1CCC(c2ccc(Nc3cc(-c4cccc(-n5ncc6cc(C(C)(C)C)cc(F)c6c5=O)c4CO)nn(C)c3=O)nc2)CC1 [I-30, 6-tert-Butyl-2-{3-[5-(1′-ethyl-1′,2′,3′,4′,5′,6′-hexahydro-[3,4]bipyridinyl-6-ylamino)-1-methyl-6-oxo-1,6-dihydro-pyridazin-3-yl]-2-hydroxymethyl-phenyl}-8-fluoro-2H-phthalazin-1-one]
32 nM	Cc1cc(Nc2cc(-c3cccc(-n4ncc5cc(C(C)(C)C)cc(F)c5c4=O)c3CO)nn(C)c2=O)nn1C [I-31, 6-tert-Butyl-2-{3-[5-(1,5-dimethyl-1H-pyrazol-3-ylamino)-1-methyl-6-oxo-1,6-dihydro-pyridazin-3-yl]-2-hydroxymethyl-phenyl}-8-fluoro-2H-phthalazin-1-one]
23 nM	CN1CC[C@@H](c2ccc(Nc3cc(-c4cccc(-n5ncc6cc(C(C)(C)C)cc(F)c6c5=O)c4CO)nn(C)c3=O)nc2)C1 [I-32, 6-tert-Butyl-8-fluoro-2-(2-hydroxymethyl-3-[1-methyl-5-[5-((S)-1-methyl-pyrrolidin-3-yl)-pyridin-2-ylamino]-6-oxo-1,6-dihydro-pyridazin-3-yl]-phenyl)-2H-phthalazin-1-one]
2 nM	CN1CC[C@H](c2ccc(Nc3cc(-c4cccc(-n5ncc6cc(C(C)(C)C)cc(F)c6c5=O)c4CO)nn(C)c3=O)nc2)C1 [I-33, 6-tert-Butyl-8-fluoro-2-(2-hydroxymethyl-3-{1-methyl-5-[5-((R)-1-methyl-pyrrolidin-3-yl)-pyridin-2-ylamino]-6-oxo-1,6-dihydro-pyridazin-3-yl}-phenyl)-2H-phthalazin-1-one]
15 nM	CN1CCN(Cc2ccc(Nc3cc(-c4cccc(-n5ncc6cc(C(C)(C)C)cc(F)c6c5=O)c4CO)nn(C)c3=O)nc2)CC1 [I-41, 6-tert-Butyl-8-fluoro-2-(2-hydroxymethyl-3-{1-methyl-5-[5-(4-methyl-piperazin-1-ylmethyl)-pyridin-2-ylamino]-6-oxo-1,6-dihydro-pyridazin-3-yl}-phenyl)-2H-phthalazin-1-one]
14 nM	COCCN(C)Cc1ccc(Nc2cc(-c3cccc(-n4ncc5cc(C(C)(C)C)cc(F)c5c4=O)c3CO)nn(C)c2=O)nc1 [I-44, 6-tert-Butyl-8-fluoro-2-{2-hydroxymethyl-3-[5-(5-{[(2-methoxy-ethyl)-methyl-amino]-methyl}-pyridin-2-ylamino)-1-methyl-6-oxo-1,6-dihydro-pyridazin-3-yl]-phenyl}-2H-phthalazin-1-one]
27 nM	CN1CCN(c2ccc(Nc3cc(-c4cccc(-n5ncc6cc(C(C)(C)C)cc(F)c6c5=O)c4CO)nn(C)c3=O)nn2)CC1 [I-45, 6-tert-Butyl-8-fluoro-2-(2-hydroxymethyl-3-{1-methyl-5-[6-(4-methyl-piperazin-1-yl)-pyridazin-3-ylamino]-6-oxo-1,6-dihydro-pyridazin-3-yl}-phenyl)-2H-phthalazin-1-one]
293 nM	CN1C[C@@H]2C[C@H]1CN2c1ccc(Nc2cc(-c3cccc(-n4ncc5cc(C(C)(C)C)cc(F)c5c4=O)c3CO)nn(C)c2=O)nn1 [I-46, 6-tert-Butyl-8-fluoro-2-(2-hydroxymethyl-3-{1-methyl-5-[6-((1S,4S)-5-methyl-2,5-diaza-bicyclo[2.2.1]hept-2-yl)-pyridazin-3-ylamino]-6-oxo-1,6-dihydro-pyridazin-3-yl}-phenyl)-2H-phthalazin-1-one]
76 nM	Cn1nc(-c2cccc(-n3ncc4cc(C(C)(C)C)cc(F)c4c3=O)c2CO)cc(Nc2ccc(C(=O)N3CCC3)cn2)c1=O [I-47, 2-(3-{5-[5-(Azetidine-1-carbonyl)-pyridin-2-ylamino]-1-methyl-6-oxo-1,6-dihydro-pyridazin-3-yl}-2-hydroxymethyl-phenyl)-6-tert-butyl-8-fluoro-2H-phthalazin-1-one]
185 nM	Cn1nc(-c2cccc(-n3ncc4cc(C(C)(C)C)cc(F)c4c3=O)c2CO)cc(Nc2ccc(C(=O)N3CCS(=O)(=O)CC3)cn2)c1=O [I-48, 6-tert-Butyl-2-(3-{5-[5-(1,1-dioxo-1λ^6-thiomorpholine-4-carbonyl)-pyridin-2-ylamino]-1-methyl-6-oxo-1,6-dihydro-pyridazin-3-yl}-2-hydroxymethyl-phenyl)-8-fluoro-2H-phthalazin-1-one]
85 nM	Cn1nc(-c2cccc(-n3ncc4cc(C(C)(C)C)cc(F)c4c3=O)c2CO)cc(Nc2ccc(C(=O)N3CC4(COC4)C3)cn2)c1=O [I-49, 2-(3-(5-(5-(2-oxa-6-azaspiro[3.3]heptane-6-carbonyl)pyridin-2-ylamino)-1-methyl-6-oxo-1,6-dihydropyridazin-3-yl)-2-(hydroxymethyl)phenyl)-6-tert-butyl-8-fluorophthalazin-1(2H)-one]
86 nM	CN1CC2(C1)CN(C(=O)c1ccc(Nc3cc(-c4cccc(-n5ncc6cc(C(C)(C)C)cc(F)c6c5=O)c4CO)nn(C)c3=O)nc1)C2 [I-50, 6-tert-butyl-8-fluoro-2-(2-(hydroxymethyl)-3-(1-methyl-5-(5-(6-methyl-2,6-diazaspiro[3.3]heptane-2-carbonyl)pyridin-2-ylamino)-6-oxo-1,6-dihydropyridazin-3-yl)phenyl)phthalazin-1(2H)-one]
19 nM	CN(C)CCNC(=O)c1ccc(Nc2cc(-c3cccc(-n4ncc5cc(C(C)(C)C)cc(F)c5c4=O)c3CO)nn(C)c2=O)nc1 [I-51, 6-(6-(3-(6-tert-butyl-8-fluoro-1-oxophthalazin-2(1H)-yl)-2-(hydroxymethyl)phenyl)-2-methyl-3-oxo-2,3-dihydropyridazin-4-ylamino)-N-(2-(dimethylamino)ethyl)nicotinamide]
27 nM	CN(CCO)C(=O)c1ccc(Nc2cc(-c3cccc(-n4ncc5cc(C(C)(C)C)cc(F)c5c4=O)c3CO)nn(C)c2=O)nc1 [I-52, 6-(6-(3-(6-tert-butyl-8-fluoro-1-oxophthalazin-2(1H)-yl)-2-(hydroxymethyl)phenyl)-2-methyl-3-oxo-2,3-dihydropyridazin-4-ylamino)-N-(2-hydroxyethyl)-N-methylnicotinamide]
39 nM	Cn1nc(-c2cccc(-n3ncc4cc(C(C)(C)C)cc(F)c4c3=O)c2CO)cc(Nc2ccc(C(=O)N3CC(C#N)C3)cn2)c1=O [I-53, 1-(6-(6-(3-(6-tert-butyl-8-fluoro-1-oxophthalazin-2(1H)-yl)-2-(hydroxymethyl)phenyl)-2-methyl-3-oxo-2,3-dihydropyridazin-4-ylamino)nicotinoyl)azetidine-3-carbonitrile]
